Our source for the Kd values is patent US20240197694A1, “MODIFIED PROTEINS AND PROTEIN BINDERS” (Cullgen (Shanghai), Inc., priority 2021, published 2024).

Molecules are shown by their SMILES. pKd: −log10 of the molar value.

In the test the target is T1, DCAF1 (1058-1396) (Homo sapiens, UniProt Q9Y4B6).
T1 construct: a fragment of a DCAF1 protein that includes amino acid residues A1058 to E1396; His6 (N, cleaved yes); made in house; host or cells: Sf9 insect cells (Bac-to-Bac baculovirus, pFastBacHT vector)
T1 sequence (Q9Y4B6 1058-1396): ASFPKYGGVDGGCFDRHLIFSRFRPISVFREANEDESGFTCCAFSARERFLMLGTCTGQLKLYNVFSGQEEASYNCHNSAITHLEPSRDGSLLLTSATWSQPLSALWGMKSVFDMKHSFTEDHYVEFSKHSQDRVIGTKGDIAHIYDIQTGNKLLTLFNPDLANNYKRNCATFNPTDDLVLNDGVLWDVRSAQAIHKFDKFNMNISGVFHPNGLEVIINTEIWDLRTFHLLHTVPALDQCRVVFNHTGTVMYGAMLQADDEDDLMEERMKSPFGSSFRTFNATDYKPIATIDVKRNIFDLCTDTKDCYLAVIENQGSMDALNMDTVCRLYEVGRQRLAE
Briefly: Surface plasmon resonance (SPR) binding assay, compound binding to DCAF1. The settings on record: immobilized DCAF1 (1058-1396), steady state affinity model, 25° C. The protocol:
Binding affinities of specific exemplary compounds to DCAF1 (1058-1396), which is a fragment of a DCAF1 protein that includes amino acid residues A1058 to E1396 were determined by a surface plasmon resonance (SPR) assay. Briefly, purified DCAF1 (1058-1396) proteins were immobilized at a density of 9,000-11,000 resonance units (RUs) on a CMS sensor chip. Sensorgrams were recorded at different concentrations of compounds in multi-cycle kinetic format. Data were analyzed using a steady state affinity model through Biacore Evaluation Software to provide equivalent dissociation constants (Kd).
Binding affinities of compounds to DCAF1 were determined by a surface plasmon resonance (SPR) assay. Purified DCAF1 (1058-1396) proteins were immobilized on a CMS sensor chip, and a dose range of compound solutions were injected in multi-cycle kinetic format. Data were analyzed using a steady state model to provide equivalent dissociation constants (Kd).
Protein Expression and Purification: Human DCAF1 (1058-1396) (UniPro: Q9Y4B6) coding sequences were cloned into pFastBacHT vector and were expressed in Sf9 cells using Bac-to-Bac baculovirus expression system (Thermo Fisher Scientific). The expression construct for DCAF1 (1058-1396) included a N-terminal His6-tag to facilitate the purification. DCAF1 (1058-1396) proteins were obtained from supernatants of cell lysates and purified through sequential application of Ni affinity chromatography (Ni-NTA column, Bio-Rad), Tag removal using TEV protease, and size-exclusion chromatography (Superdex 200 column, GE Healthcare).
Surface plasmon resonance (SPR) binding assays: SPR studies were performed on a Biacore X100 plus or T200 instrument (GE Healthcare). Immobilization of purified DCAF1 (1058-1396) was carried out at 25° C. using a CMS sensor chip. The surface was pre-equilibrated in HBS-EP running buffer (10 mM HEPES, pH 7.4, 150 mM NaCl, 3 mM EDTA, 0.05% P20), before being activated with EDC/NHS. DCAF1 (1058-1396) was immobilized through amino groups to a density of 9,000-12,000 resonance units (RUs) on flow cell channel 2 (FC2), whereas flow cell channel 1 (FC1) was used as reference. Both DCAF1 immobilized and reference surfaces were deactivated with 1 M ethanolamine.
Interaction experiments were performed at 25° C. The compounds were prepared and serially diluted in HBS-EP running buffer containing final 2% DMSO (6-point two-fold serial dilution, 100 μM -3.125 μM final concentration of compounds). Compound Solutions were injected individually in multi-cycle kinetic format without regeneration (flow rate 30 μL/min, association time 60 s, dissociation time 60 s). Sensorgrams from reference surfaces and blank injections were subtracted from the raw data (double-referenced) and the data was solvent-corrected prior to analysis. Data were analyzed using a steady state affinity model through Biacore Evaluation Software to provide equivalent dissociation constants (Kd).
Broadly, the pKd is the negative decadic logarithm of the Kd, by convention in mol/L. Read a low pKd as a high Kd. Compound `CN1Cc2cc(NCCCCCCN)ccc2CC1CNc1ncccc1F` (stereo not drawn) [CPD-018, N1-(3-(((3-fluoropyridin-2-yl)amino)methyl)-2-methyl-1,2,3,4-tetrahydroisoquinolin-7-yl)hexane-1,6-diamine] gave a pKd of 4.15 to 4.40. The same measure for `Cc1ccc2c(c1)C1CN(C)CCC1N2C(=O)c1ccnc(OCC(F)F)c1` (stereo not drawn) [CPD-069, (2-(2,2-difluoroethoxy)pyridin-4-yl)(2,8-dimethyl-1,2,3,4,4a,9b-hexahydro-5H-pyrido[4,3-b]indol-5-yl)methanone]: under 4.00. The value for `Cc1cccc2c1[C@@H]1CN(C)CC[C@H]1N2C` (racemic) [CPD-040, trans-2,5,9-trimethyl-2,3,4,4a,5,9b-hexahydro-1H-pyrido[4,3-b]indole] was under 4.00; that for `Cc1ccc(C(=O)N[C@H](C(=O)N2c3ccc(C)cc3C3CN(C)CCC32)C(C)C)cc1` (stereo partly drawn) [CPD-079, N-((2S)-1-(2,8-dimethyl-1,2,3,4,4a,9b-hexahydro-5H-pyrido [4,3-b]indol-5-yl)-3-methyl-1-oxobutan-2-yl)-4-methylbenzamide] was under 4.00. The same measure for `OCC1(CNCc2cnc[nH]2)CC1` [CPD-105, (1-((((1H-imidazol-5-yl)methyl)amino)methyl)cyclopropyl) methanol]: at least 4.40; for `Cc1ccc2[nH]c3c(c2c1)CN(CC(O)COc1ccc(C(=O)O)cc1)CC3` (stereo not drawn) [CPD-056, 4-(2-hydroxy-3-(8-methyl-1,3,4,5-tetrahydro-2H-pyrido[4,3-b]indol-2-yl)propoxy)benzoic acid]: at least 4.40. With `Cc1ccc2c(c1)c1c(n2C)CCN(C)C1` [CPD-022, 2,5,8-trimethyl-2,3,4,5-tetrahydro-1H-pyrido[4,3-b]indole], the pKd was under 4.00. The same measure for `Cc1ccc2c(c1)C1CN(C)CCC1N2C(=O)c1cc2c(C)nn(-c3ccc(Cl)cc3)c2s1` (stereo not drawn) [CPD-074, (1-(4-chlorophenyl)-3-methyl-1H-thieno[2,3-c]pyrazol-5-yl)(2,8-dimethyl-1,2,3,4,4a,9b-hexahydro-5H-pyrido[4,3-b]indol-5-yl)methanone]: under 4.00; for `CN(C)C(=O)c1ccc(NCC2Cc3ccccc3CN2C)nc1` (stereo not drawn) [CPD-089, N,N-dimethyl-6-(((2-methyl-1,2,3,4-tetrahydroisoquinolin-3-yl)methyl)amino)nicotinamide]: 4.00 to 4.15; for `Cn1cccc1CNCc1cccnc1` [CPD-002, 1-(1-methyl-1H-pyrrol-2-yl)-N-(pyridin-3-ylmethyl)methanamine]: under 4.00. Compound `c1ccc2c3c([nH]c2c1)CCN(CCc1ccncc1)C3` [CPD-045, 2-(2-(pyridin-4-yl)ethyl)-2,3,4,5-tetrahydro-1H-pyrido[4,3-b]indole] gave a pKd of 4.15 to 4.40. The compound `CN1Cc2ccccc2CC1CNc1ncccc1F` (stereo not drawn) [CPD-007, 3-fluoro-N-((2-methyl-1,2,3,4-tetrahydroisoquinolin-3-yl)methyl)pyridin-2-amine] showed a pKd of under 4.00. The compound `Cn1cccc1CNCC1CC(c2nncn2C)CC1O` (stereo not drawn) [CPD-099, 2-((((1-methyl-1H-pyrrol-2-yl)methyl)amino)methyl)-4-(4-methyl-4H-1,2,4-triazol-3-yl)cyclopentan-1-ol] had a pKd of 4.15 to 4.40. Regarding `COC(CN1CCc2[nH]c3ccc(F)cc3c2C1)OC` [CPD-051, 2-(2,2-dimethoxyethyl)-8-fluoro-2,3,4,5-tetrahydro-1H-pyrido[4,3-b]indole], the pKd was at least 4.40. The value for `Cc1ccc2c(c1)[C@H]1CN(C)CC[C@H]1N2C(=O)/C=C/c1nccs1` (racemic) [CPD-037, (E)-1-(cis-2,8-dimethyl-1,2,3,4,4a,9b-hexahydro-5H-pyrido [4,3-b]indol-5-yl)-3-(thiazol-2-yl)prop-2-en-1-one] was under 4.00; that for `Cc1ccc2c(c1)[C@@H]1CN(C)CC[C@H]1N2C(=O)/C=C/c1nccs1` (racemic) [CPD-035, (E)-1-(trans-2,8-dimethyl-1,2,3,4,4a,9b-hexahydro-5H-pyrido [4,3-b]indol-5-yl)-3-(thiazol-2-yl)prop-2-en-1-one] was under 4.00. Compound `Oc1ccc(F)c(CNCc2cnc[nH]2)c1` [CPD-102, 3-((((1H-imidazol-5-yl)methyl)amino)methyl)-4-fluorophenol] gave a pKd of under 4.00. The same measure for `COc1cc(C(=O)N2c3ccc(C)cc3C3CN(C)CCC32)ncn1` (stereo not drawn) [CPD-064, (2,8-dimethyl-1,2,3,4,4a,9b-hexahydro-5H-pyrido [4,3-b]indol-5-yl)(6-methoxypyrimidin-4-yl)methanone]: under 4.00; for `Cc1ccc2c(c1)[C@@H]1CN(C)CC[C@H]1N2` (racemic) [CPD-032, trans-2,8-dimethyl-2,3,4,4a,5,9b-hexahydro-1H-pyrido [4,3-b]indole]: under 4.00; for `CCn1nc(C2CC2)cc1C(=O)N1c2ccc(C)cc2C2CN(C)CCC21` (stereo not drawn) [CPD-071, (3-cyclopropyl-1-ethyl-1H-pyrazol-5-yl)(2,8-dimethyl-1,2,3,4,4a,9b-hexahydro-5H-pyrido[4,3-b]indol-5-yl)methanone]: under 4.00. The same measure for `CN(CC1Cc2ccccc2CN1C)C(=O)/C=C/c1cc(CO)cs1` (stereo not drawn) [CPD-097, (E)-3-(4-(hydroxymethyl)thiophen-2-yl)-N-methyl-N-((2-methyl-1,2,3,4-tetrahydroisoquinolin-3-yl)methyl)acrylamide]: under 4.00; for `CN1Cc2ccccc2CC1CNC(=O)c1cncc(O)n1` (stereo not drawn) [CPD-015, 6-hydroxy-N-((2-methyl-1,2,3,4-tetrahydroisoquinolin-3-yl)methyl)pyrazine-2-carboxamide]: under 4.00; for `Cc1ccc2c(c1)C1CN(C)CCC1N2S(=O)(=O)c1c([N+](=O)[O-])ccc(C)c1C` (stereo not drawn) [CPD-078, 5-((2,3-dimethyl-6-nitrophenyl)sulfonyl)-2,8-dimethyl-2,3,4,4a,5,9b-hexahydro-1H-pyrido[4,3-b]indole]: under 4.00. For `CCN1CCc2[nH]c3ccccc3c2C1` [CPD-043, 2-ethyl-2,3,4,5-tetrahydro-1H-pyrido[4,3-b]indole], the pKd was 4.15 to 4.40. The value for `CC(C)c1ccc2[nH]c3c(c2c1)CN(CCc1cnn[nH]1)CC3` [CPD-009, 2-(2-(1H-1,2,3-triazol-5-yl)ethyl)-8-isopropyl-2,3,4,5-tetrahydro-1H-pyrido[4,3-b]indole] was 4.15 to 4.40; that for `Cc1ccc(S(=O)(=O)c2nc(N3c4ccc(C)cc4C4CN(C)CCC43)sc2Cl)cc1` (stereo not drawn) [CPD-062, 5-chloro-2-(2,8-dimethyl-1,2,3,4,4a,9b-hexahydro-5H-pyrido [4,3-b]indol-5-yl)-4-tosylthiazole] was under 4.00; that for `O=C(CCN1CCc2[nH]c3ccccc3c2C1)N1CCOCC1` [CPD-048, 1-morpholino-3-(1,3,4,5-tetrahydro-2H-pyrido[4,3-b]indol-2-yl)propan-1-one] was at least 4.40. `O=C(O)CCN1CCc2[nH]c3ccc(Br)cc3c2C1` [CPD-054, 3-(8-bromo-1,3,4,5-tetrahydro-2H-pyrido[4,3-b]indol-2-yl)propanoic acid] had a negative logarithm of the Kd (pKd) of under 4.00.

`CC(C)N1CCc2c(c3ccccc3n2CC(=O)O)C1` [CPD-010, 2-(2-isopropyl-1,2,3,4-tetrahydro-5H-pyrido[4,3-b]indol-5-yl)acetic acid] showed a pKd of under 4.00.

Regarding `CCCCNCc1cccn1-c1ccccc1` [CPD-100, N-((1-phenyl-1H-pyrrol-2-yl)methyl)butan-1-amine], the pKd was 4.00 to 4.15. The value for `Cc1ccc2c(c1)C1CN(C)CCC1N2C(=O)CCc1cccs1` (stereo not drawn) [CPD-082, 1-(2,8-dimethyl-1,2,3,4,4a,9b-hexahydro-5H-pyrido[4,3-b]indol-5-yl)-3-(thiophen-2-yl)propan-1-one] was under 4.00; that for `CN1Cc2ccccc2CC1CNc1nccc(-c2ccncc2)n1` (stereo not drawn) [CPD-090, N-((2-methyl-1,2,3,4-tetrahydroisoquinolin-3-yl)methyl)-4-(pyridin-4-yl)pyrimidin-2-amine] was 4.15 to 4.40. The compound `Fc1ccc2[nH]c3c(c2c1)CN(CCc1cnn[nH]1)CC3` [CPD-012, 2-(2-(1H-1,2,3-triazol-5-yl)ethyl)-8-fluoro-2,3,4,5-tetrahydro-1H-pyrido[4,3-b]indole] had a pKd of at least 4.40.
